Literature values, collected in US20080241076A1, “Method and composition for increasing Erythropoietin” (priority 2007, published 2008).

Columns and labels:
kidney production of EPO = settings: dog kidneys; substances given separately
[1] = in-vitro, 14C-labeled
erythrocyte = settings: Carnitine supplementation
hemoglobin levels = settings: hemodialysis patients
responsiveness to EPO = settings: in vivo
[2] = human, in vivo
renal EPO production = settings: animal studies
[3] = tested on: erythrocyte 2,3-bisphosphoglycerate (2,3-BPG); settings: following phosphate loading
induced clots = settings: dogs with induced clots
blood flow = settings: animal study
blood clots = settings: human trials, feeding

CCCCC/C=C\C/C=C\C/C=C\C/C=C\CCCC(=O)O [Arachidonic Acid, all-cis-5,8,11,14-eicossatetraenoic acid]
kidney production of EPO (kidney production of EPO): increased | prostaglandins produced from Arachidonic acid [1]: PGD2, PGE2, PGF2 alpha and 6-keto-PGF1 alpha

C[N+](C)(C)CC(O)CC(=O)[O-] (stereo not drawn) [Carnitine]
erythrocyte survival time (erythrocyte): increase

CCCCC[C@H](O)/C=C/[C@H]1[C@H](O)CC(=O)[C@@H]1C/C=C\CCCC(=O)O [PGE2, reference compound]
kidney production of EPO (kidney production of EPO): increased | iron incorporation in RBC (RBC): significant increase

O=C1O[C@H]([C@@H](O)CO)C(O)=C1O [Vitamin C]
hemoglobin levels (hemoglobin levels): significant increases | responsiveness to EPO (responsiveness to EPO): improve

[Se] [selenium]
elemental concentration in whole blood and plasma [2]: significant increase

Vitamin A
renal EPO production (renal EPO production): increase

Vitamin E
endogenous glutathione (endogenous glutathione): stabilize

phosphate
erythrocyte 2,3-BPG [3]: significant increase

B1: Nattokinase: potent fibrinolytic enzyme extracted from a Japanese food called Natto (protein, UniProt P35835 107-381, looked up)
Subtilisin NAT: AQSVPYGISQIKAPALHSQGYTGSNVKVAVIDSGIDSSHPDLNVRGGASFVPSETNPYQDGSSHGTHVAGTIAALNNSIGVLGVAPSASLYAVKVLDSTGSGQYSWIINGIEWAISNNMDVINMSLGGPTGSTALKTVVDKAVSSGIVVAAAAGNEGSSGSTSTVGYPAKYPSTIAVGAVNSSNQRASFSSVGSELDVMAPGVSIQSTLPGGTYGAYNGTSMATPHVAGAAALILSKHPTWTNAQVRDRLESTATYLGNSFYYGKGLINVQAAAQ
time to regain normal blood circulation (induced clots): within five hours | regain in blood flow (blood flow): 62% | ability to dissolve blood clots (blood clots): heightened ability to dissolve blood clots

B2: plasmin: the body's natural fibrinolytic enzyme (protein, UniProt P00747 20-580; P00747 581-810, looked up)
Plasmin heavy chain A: EPLDDYVNTQGASLFSVTKKQLGAGSIEECAAKCEEDEEFTCRAFQYHSKEQQCVIMAENRKSSIIIRMRDVVLFEKKVYLSECKTGNGKNYRGTMSKTKNGITCQKWSSTSPHRPRFSPATHPSEGLEENYCRNPDNDPQGPWCYTTDPEKRYDYCDILECEEECMHCSGENYDGKISKTMSGLECQAWDSQSPHAHGYIPSKFPNKNLKKNYCRNPDRELRPWCFTTDPNKRWELCDIPRCTTPPPSSGPTYQCLKGTGENYRGNVAVTVSGHTCQHWSAQTPHTHNRTPENFPCKNLDENYCRNPDGKRAPWCHTTNSQVRWEYCKIPSCDSSPVSTEQLAPTAPPELTPVVQDCYHGDGQSYRGTSSTTTTGKKCQSWSSMTPHRHQKTPENYPNAGLTMNYCRNPDADKGPWCFTTDPSVRWEYCNLKKCSGTEASVVAPPPVVLLPDVETPSEEDCMFGNGKGYRGKRATTVTGTPCQDWAAQEPHRHSIFTPETNPRAGLEKNYCRNPDGDVGGPWCYTTNPRKLYDYCDVPQCAAPSFDCGKPQVEPKKCPGR
Plasmin light chain B: VVGGCVAHPHSWPWQVSLRTRFGMHFCGGTLISPEWVLTAAHCLEKSPRPSSYKVILGAHQEVNLEPHVQEIEVSRLFLEPTRKDIALLKLSSPAVITDKVIPACLPSPNYVVADRTECFITGWGETQGTFGAGLLKEAQLPVIENKVCNRYEFLNGRVQSTELCAGHLAGGTDSCQGDSGGPLVCFEKDKYILQGVTSWGLGCARPNKPGVYVRVSRFVTWIEGVMRNN
modifications: plasmin
notes: the body's natural fibrinolytic enzyme
regain in blood flow (blood flow): 15.8%
